Test system: SEM cells
Experiment: cell viability relative to DMSO control; higher = less cytotoxic
Settings: 48 h
How it was run: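 NOMO1 or SEM cells were plated at 500 cells/well and P12-Ichikawa cells at 1000 cells/well in 1536-well plates (5 μl), after each leukemia line had been adapted for at least four passages in each medium. Pin dosing delivered library compounds in DMSO at 11 threefold concentrations, 47 μM to 0.79 nM. CellTiter-Glo One luminescence was read after 48 h at 37°C. Viability is reported as a per-plate percentage of DMSO wells, with cell-free wells as background.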

[1] = HPLM + 10% dialyzed FBS, 0.000781 µM
[2] = HPLM + 10% dialyzed FBS, 0.00234 µM
[3] = HPLM + 10% dialyzed FBS, 0.00702 µM
[4] = HPLM + 10% dialyzed FBS, 0.0211 µM
[5] = HPLM + 10% dialyzed FBS, 0.0632 µM
[6] = HPLM + 10% dialyzed FBS, 0.19 µM
[7] = HPLM + 10% dialyzed FBS, 0.569 µM
[8] = HPLM + 10% dialyzed FBS, 1.71 µM
[9] = HPLM + 10% dialyzed FBS, 5.12 µM
[10] = HPLM + 10% dialyzed FBS, 15.4 µM
[11] = HPLM + 10% dialyzed FBS, 46.1 µM
[12] = RPMI 5 mM glucose + 10% FBS, 0.000781 µM
[13] = RPMI 5 mM glucose + 10% FBS, 0.00234 µM
[14] = RPMI 5 mM glucose + 10% FBS, 0.00702 µM
[15] = RPMI 5 mM glucose + 10% FBS, 0.0211 µM
[16] = RPMI 5 mM glucose + 10% FBS, 0.0632 µM
[17] = RPMI 5 mM glucose + 10% FBS, 0.19 µM
[18] = RPMI 5 mM glucose + 10% FBS, 0.569 µM
[19] = RPMI 5 mM glucose + 10% FBS, 1.71 µM
[20] = RPMI 5 mM glucose + 10% FBS, 5.12 µM
[21] = RPMI 5 mM glucose + 10% FBS, 15.4 µM
[22] = RPMI 5 mM glucose + 10% FBS, 46.1 µM
[23] = RPMI 5 mM glucose + 10% dialyzed FBS, 0.000781 µM
[24] = RPMI 5 mM glucose + 10% dialyzed FBS, 0.00234 µM
[25] = RPMI 5 mM glucose + 10% dialyzed FBS, 0.00702 µM
[26] = RPMI 5 mM glucose + 10% dialyzed FBS, 0.0211 µM
[27] = RPMI 5 mM glucose + 10% dialyzed FBS, 0.0632 µM
[28] = RPMI 5 mM glucose + 10% dialyzed FBS, 0.19 µM
[29] = RPMI 5 mM glucose + 10% dialyzed FBS, 0.569 µM
[30] = RPMI 5 mM glucose + 10% dialyzed FBS, 1.71 µM
[31] = RPMI 5 mM glucose + 10% dialyzed FBS, 5.12 µM
[32] = RPMI 5 mM glucose + 10% dialyzed FBS, 15.4 µM
[33] = RPMI 5 mM glucose + 10% dialyzed FBS, 46.1 µM

| SMILES | cell viability [1] | cell viability [2] | cell viability [3] | cell viability [4] | cell viability [5] | cell viability [6] | cell viability [7] | cell viability [8] | cell viability [9] | cell viability [10] | cell viability [11] | cell viability [12] | cell viability [13] | cell viability [14] | cell viability [15] | cell viability [16] | cell viability [17] | cell viability [18] | cell viability [19] | cell viability [20] | cell viability [21] | cell viability [22] | cell viability [23] | cell viability [24] | cell viability [25] | cell viability [26] | cell viability [27] | cell viability [28] | cell viability [29] | cell viability [30] | cell viability [31] | cell viability [32] | cell viability [33] |
| --- | --- | --- | --- | --- | --- | --- | --- | --- | --- | --- | --- | --- | --- | --- | --- | --- | --- | --- | --- | --- | --- | --- | --- | --- | --- | --- | --- | --- | --- | --- | --- | --- | --- |
| CNC[C@H](O)[C@@H](O)[C@H](O)[C@H](O)CO | 96.3% | 106% | 103% | 106% | 106% | 114% | 127% | 63.4% | 121% | 40.9% | 112% | 103% | 96.2% | 107% | 93.9% | 117% | 115% | 132% | 61.3% | 112% | 24.9% | 114% | 98.1% | 118% | 98.8% | 88.8% | 116% | 103% | 122% | 58.3% | 136% | 28% | 119% |
| C=CC(=O)Nc1cc2c(Nc3ccc(F)c(Cl)c3)ncnc2cc1C#CC(C)(C)N1CCN(C)CC1 | 99.3% | 107% | 108% | 114% | 106% | 104% | 92.3% | 87.1% | 17.3% | 4.78% | 2.96% | 112% | 116% | 112% | 118% | 105% | 138% | 103% | 87.7% | 22.2% | 4.92% | 4.19% | 102% | 104% | 95.8% | 97% | 102% | 106% | 107% | 87.7% | 19.3% | 4.98% | 3.49% |
| C[C@]12CCC3c4ccc(O)cc4CCC3C1CCC2=O (stereo partly drawn) | 70.1% | 81.6% | 88.8% | 84.5% | 91.4% | 73.6% | 62.2% | 77.8% | 71.7% | 42.2% | 58.9% | 94% | 92.3% | 96.3% | 104% | 88.9% | 106% | 82% | 80.7% | 81.2% | 64.6% | 85% | 103% | 95.4% | 98.4% | 103% | 116% | 99.6% | 80.7% | 82.8% | 93.2% | 35.6% | 71.4% |
| CCCCCNC(=N)N/N=C/c1c[nH]c2ccc(OC)cc12 | 112% | 119% | 114% | 128% | 108% | 130% | 115% | 124% | 106% | 48% | 31.2% | – | – | – | – | – | – | – | – | – | – | – | 111% | 118% | 115% | 110% | 117% | 117% | 130% | 122% | 99.1% | 56.7% | 36.6% |
| CN(C)c1nc(Cc2ccc(NC(=O)c3ccc(C(F)(F)F)cc3)cc2)nc(N(C)C)c1CC(=O)O | 104% | 107% | 106% | 100% | 116% | 100% | 123% | 112% | 125% | 116% | 83.4% | 113% | 99.4% | 101% | 93.7% | 111% | 82.8% | 118% | 93.4% | 110% | 100% | 74.7% | 99.1% | 118% | 102% | 108% | 121% | 117% | 113% | 115% | 109% | 105% | 90% |
| O=C(c1cncc(Br)c1)N1CCC(N2CCCC2)CC1 | 100% | 118% | 107% | 106% | 115% | 106% | 106% | 107% | 114% | 99.7% | 88.5% | 98.4% | 106% | 107% | 110% | 105% | 114% | 117% | 108% | 117% | 95.1% | 77.2% | 110% | 95% | 95% | 105% | 99% | 112% | 102% | 98.7% | 99.1% | 91.2% | 71.2% |
| CN1CCc2c(c3ccccc3n2Cc2ccc(C(=O)NO)cc2)C1 | 81.4% | 76.1% | 79.7% | 95.4% | 84.2% | 79.2% | 70.7% | 83.9% | 88.3% | 25.2% | 11.7% | 87.3% | 78.9% | 88.5% | 92.9% | 84.8% | 78% | 57.5% | 97.3% | 88.3% | 38.6% | 26.2% | 76.7% | 60.4% | 67% | 78.4% | 69.5% | 61.2% | 58.1% | 77.2% | 94.6% | 32% | 22.6% |
| Cc1c(N)nc([C@H](CC(N)=O)NC[C@@H](N)C(N)=O)nc1C(=O)N[C@H](C(=O)N[C@@H](C)[C@H](O)[C@@H](C)C(=O)N[C@@H](C(=O)NCCc1nc(-c2nc(C(=O)NCCC[S+](C)C)cs2)cs1)[C@@H](C)O)C(O[C@H]1O[C@H](CO)[C@H](O)[C@@H](O)[C@H]1O[C@H]1O[C@H](CO)[C@@H](O)[C@H](OC(N)=O)[C@@H]1O)c1c[nH]cn1 (stereo partly drawn) | 110% | 115% | 115% | 113% | 101% | 128% | 121% | 82.9% | 61.9% | 67.2% | 74.2% | 99.2% | 109% | 107% | 114% | 89.7% | 121% | 113% | 61.8% | 64.9% | 29.7% | 17.7% | 89.6% | 110% | 99.3% | 111% | 88.4% | 113% | 91.5% | 81.8% | 54.3% | 16.9% | 14.8% |

Source: the supplement of paper PMC11451515
